The subject of assay [1] is HT29 cells. Description: Mitosis inhibition assay (MIA), checkpoint abrogation after etoposide. Type of assay: cell-based. Conditions: Homo sapiens, HT-29, etoposide 50 μM 1 hour, then compound with nocodazole 100 ng/mL, 21 hours, read-out: MIA IC50 (concentration required to allow 50% of cells to enter mitosis).
Assay [2] concerns the target T1, CHK1 (Homo sapiens, UniProt O14757).
T1 sequence (O14757 1-476): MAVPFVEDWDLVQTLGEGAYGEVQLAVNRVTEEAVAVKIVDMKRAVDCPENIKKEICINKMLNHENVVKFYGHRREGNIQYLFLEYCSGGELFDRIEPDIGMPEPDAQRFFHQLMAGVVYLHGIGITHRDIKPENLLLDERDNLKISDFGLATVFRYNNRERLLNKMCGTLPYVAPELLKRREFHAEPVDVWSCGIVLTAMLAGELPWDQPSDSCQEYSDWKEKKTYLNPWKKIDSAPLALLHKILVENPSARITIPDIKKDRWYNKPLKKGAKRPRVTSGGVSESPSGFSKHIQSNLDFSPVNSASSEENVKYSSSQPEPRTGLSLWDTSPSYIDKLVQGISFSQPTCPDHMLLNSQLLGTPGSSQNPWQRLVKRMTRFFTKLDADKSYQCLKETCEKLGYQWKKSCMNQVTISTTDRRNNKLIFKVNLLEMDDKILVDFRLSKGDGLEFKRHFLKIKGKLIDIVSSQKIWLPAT
Description: CHK1 kinase function inhibition (DELFIA assay, phosphorylation of CDC25C peptide). Conditions: CHK1 1 nM, ATP 30 μM, 30 minutes at room temperature. Type of assay: biochemical.

For assay [3], the system named is HT29 colon carcinoma cells. Description: Cytotoxicity assay (SRB). Conditions: Homo sapiens, HT-29, 96 hours, read-out: SRB IC50 (concentration required to inhibit growth by 50%). Type of assay: cell-based.

24 compounds from US8530468B2 (Cancer Research Technology Limited, priority 2008, dated 2013) can be followed below.

Some results are limits rather than exact numbers.

Consider `N#Cc1ncc(Nc2cc3ccccc3cn2)nc1O[C@@H]1CCNC1` [AA-050], for which the IC50 in assay [1] is ≤ 10 µM; in assay [2], ≤ 1 µM; in assay [3], ≤ 10 µM.
As to `N#Cc1ncc(Nc2cc3cccc(NCCO)c3cn2)nc1O[C@@H]1CCNC1` [AA-044], the IC50 was ≤ 10 µM in assay [1], ≤ 1 µM in assay [2] and ≤ 10 µM in assay [3].
On to `COCCCNc1cccc2cc(Nc3cnc(C#N)c(O[C@H](C)CN(C)C)n3)ncc12` [AA-038], for which the IC50 in assay [1] is ≤ 10 µM; in assay [2], ≤ 1 µM; in assay [3], ≤ 10 µM.
Turning to `N#Cc1cnc(Nc2cc3cccc(NCCN4CCOCC4)c3cn2)cn1` [AA-020, 5-(8-(2-morpholinoethylamino)isoquinolin-3-ylamino)pyrazine-2-carbonitrile], the IC50 was ≤ 10 µM in assay [1], ≤ 1 µM in assay [2] and ≤ 10 µM in assay [3].
With `CC(CN(C)C)Oc1nc(Nc2cc3cccc(Br)c3cn2)cnc1C#N` (stereo not drawn) [AA-026], the IC50 in assay [1] is ≤ 10 µM; in assay [2] it was ≤ 1 µM; in assay [3], ≤ 10 µM.
For the compound `COc1cccc2cc(Nc3cnc(C#N)c(O[C@H](C)CN(C)C)n3)ncc12` [AA-067, (R)-3-(1-(Dimethylamino)propan-2-yloxy)-5-(8-methoxyisoquinolin-3-ylamino)pyrazine-2-carbonitrile], the IC50 was ≤ 10 µM in assay [1], ≤ 1 µM in assay [2] and ≤ 10 µM in assay [3].
`N#Cc1cnc(Nc2cc3cccc(N)c3cn2)cn1` [AA-061, 5-(8-Aminoisoquinolin-3-ylamino)pyrazine-2-carbonitrile]: the IC50 in assay [1] was ≤ 10 µM; in assay [2], ≤ 1 µM; in assay [3] it was ≤ 10 µM.
In the case of `Cc1cccc2cc(Nc3cnc(C#N)c(O[C@H](C)CN(C)C)n3)ncc12` [AA-057], the IC50 in assay [1] is ≤ 10 µM; in assay [2], ≤ 1 µM; in assay [3] it was ≤ 10 µM.
On to `N#Cc1ncc(Nc2cc3cccc(NCCCO)c3cn2)nc1O[C@@H]1CCNC1` [AA-040], for which the IC50 is ≤ 10 µM in assay [1], ≤ 1 µM in assay [2] and ≤ 10 µM in assay [3].
On to `CC(CN(C)C)Oc1nc(Nc2cc3cccc(NCCO)c3cn2)cnc1C#N` (stereo not drawn) [AA-032], for which the IC50 was ≤ 10 µM in assay [1], ≤ 1 µM in assay [2] and ≤ 10 µM in assay [3].
For the compound `CNc1cccc2cc(Nc3cnc(C#N)cn3)ncc12` [AA-059], the IC50 in assay [1] is ≤ 10 µM; in assay [2], ≤ 1 µM; in assay [3], ≤ 10 µM.
With `C[C@H](CN(C)C)Oc1nc(Nc2cc3cccc(F)c3cn2)cnc1C#N` [AA-054], the IC50 in assay [1] was ≤ 10 µM; in assay [2], ≤ 1 µM; in assay [3] it was ≤ 10 µM.
Consider `N#Cc1ncc(Nc2cc3cccc(Br)c3cn2)nc1OC[C@H]1CNCCO1` [AA-051], for which the IC50 in assay [1] was ≤ 10 µM; in assay [2] it was ≤ 1 µM; in assay [3], ≤ 10 µM.
`N#Cc1ncc(Nc2cc3cccc(C(F)(F)F)c3cn2)nc1O[C@@H]1CCNC1` [AA-055]: the IC50 was ≤ 10 µM in assay [1], ≤ 1 µM in assay [2] and ≤ 10 µM in assay [3].
In the case of `N#Cc1ncc(Nc2cc3cccc(NCCO)c3cn2)nc1OC[C@H]1CNCCO1` [AA-043], the figures for the IC50 in assay [1], in assay [2] and in assay [3] were ≤ 10 µM, ≤ 1 µM and ≤ 10 µM, respectively.
Regarding `CC(CN(C)C)Oc1nc(Nc2cc3cccc(NCCCO)c3cn2)cnc1C#N` (stereo not drawn) [AA-034], the IC50 is ≤ 10 µM in assay [1], ≤ 1 µM in assay [2] and ≤ 10 µM in assay [3].
With `C[C@H](CN(C)C)Oc1nc(Nc2cc3cccc(NCCCO)c3cn2)cnc1C#N` [AA-041], the IC50 in assay [1] is ≤ 10 µM; in assay [2] it was ≤ 1 µM; in assay [3], ≤ 10 µM.
Regarding `Cc1cccc2cc(Nc3cnc(C#N)c(OC(C)CN(C)C)n3)ncc12` (stereo not drawn) [AA-025], the IC50 is ≤ 10 µM in assay [1], ≤ 1 µM in assay [2] and ≤ 10 µM in assay [3].
`CNc1cccc2cc(Nc3cnc(C#N)c(OC(C)CN(C)C)n3)ncc12` (stereo not drawn) [AA-060]: the IC50 was ≤ 10 µM in assay [1], ≤ 1 µM in assay [2] and ≤ 10 µM in assay [3].
In the case of `N#Cc1ncc(Nc2cc3cccc(Cl)c3cn2)nc1O[C@@H]1CCNC1` [AA-008, (R)-5-(8-Chloroisoquinolin-3-ylamino)-3-(pyrrolidin-3-yloxy)pyrazine-2-carbonitrile], the results for the IC50 in assay [1], in assay [2] and in assay [3] were ≤ 10 µM, ≤ 1 µM and ≤ 10 µM, respectively.
As to `N#Cc1cnc(Nc2cc3cccc(NCCCO)c3cn2)cn1` [AA-033], the IC50 in assay [1] is ≤ 10 µM; in assay [2] it was ≤ 1 µM; in assay [3], ≤ 10 µM.
On to `N#Cc1ncc(Nc2cc3cccc(Br)c3cn2)nc1O[C@@H]1CCNC1` [AA-052], for which the IC50 was ≤ 10 µM in assay [1], ≤ 1 µM in assay [2] and ≤ 10 µM in assay [3].
`Cc1cccc2cc(Nc3cnc(C#N)c(O[C@@H]4CCNC4)n3)ncc12` [AA-058]: the IC50 in assay [1] was ≤ 10 µM; in assay [2] it was ≤ 1 µM; in assay [3], ≤ 10 µM.
As for `CN1CCC(COc2nc(Nc3cc4cccc(Cl)c4cn3)cnc2C#N)CC1` [AA-014], the IC50 in assay [1] was ≤ 10 µM; in assay [2] it was ≤ 1 µM; in assay [3] it was ≤ 10 µM.
